ChEMBL document CHEMBL1201862, “PubChem BioAssay data set” (2004)
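96-well plates; 48 h exposure; 5 concentrations. Endpoints by linear interpolation between flanking doses. Not reached: highest tested concentration assigned. At the GI50, growth is halved.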 Activity calls are given as the source filed them. No stated cut-off is given here; in the data, active = GI50 up to about 1.1 µM and inactive = higher.

What was measured:
Assay in all cases: NCI-60 cell line screen, 48 h
OVCAR-8 = test system: OVCAR-8
LOX IMVI = test system: LOX IMVI
SK-OV-3 = test system: SK-OV-3
SR = test system: SR
RPMI-8226 = test system: RPMI-8226
SF-539 = test system: SF-539
ACHN = test system: ACHN
TK-10 = test system: TK-10
HCT-15 = test system: HCT-15
786-0 = test system: 786-0
U-251 = test system: U-251
EKVX = test system: EKVX
KM12 = test system: KM12
SK-MEL-2 = test system: SK-MEL-2
SK-MEL-28 = test system: SK-MEL-28
NCI-H23 = test system: NCI-H23
HCT-116 = test system: HCT-116
SNB-19 = test system: SNB-19
SK-MEL-5 = test system: SK-MEL-5
MDA-N = test system: MDA-N

Row | Structure (SMILES) | GI50 (OVCAR-8) | GI50 (LOX IMVI) | GI50 (SK-OV-3) | GI50 (SR) | GI50 (RPMI-8226) | GI50 (SF-539) | GI50 (ACHN) | GI50 (TK-10) | GI50 (HCT-15) | GI50 (786-0) | GI50 (U-251) | GI50 (EKVX) | GI50 (KM12) | GI50 (SK-MEL-2) | GI50 (SK-MEL-28) | GI50 (NCI-H23) | GI50 (HCT-116) | GI50 (SNB-19) | GI50 (SK-MEL-5) | GI50 (MDA-N)
1 | Cc1ccc2c(=O)cc(-c3cccc(F)c3)[nH]c2n1 | 0.0638 µM (active) | 0.0518 µM (active) | 0.0403 µM (active) | 0.0224 µM (active) | 0.0397 µM (active) | 0.0728 µM (active) | 0.0514 µM (active) | 1.94 µM (inactive) | 0.0381 µM | 0.0446 µM (active) | 0.0389 µM (active) | 0.0719 µM (active) | 0.022 µM (active) | 0.0398 µM (active) | 0.64 µM (active) | 0.0501 µM (active) | 0.0406 µM (active) | 0.153 µM (active) | 0.0206 µM (active) | < 0.012 µM (active)
2 | O=C1OC(CCCN2CCCCC2)(c2ccccc2)CC12CCCC2 (stereo not given) | > 100 µM (inactive) | > 72.1 µM (inactive) | > 100 µM (inactive) | 34.4 µM (inactive) | 50 µM (inactive) | 49.1 µM (inactive) | > 100 µM (inactive) | > 100 µM (inactive) | > 95.3 µM | > 100 µM (inactive) | > 100 µM (inactive) | > 100 µM (inactive) | > 100 µM (inactive) | > 100 µM (inactive) | 22.3 µM (inactive) | > 89.7 µM (inactive) | 73.1 µM (inactive) | > 100 µM (inactive) | 18.7 µM (inactive) | > 77.6 µM (inactive)
3 | Nc1nc(Cl)cc(NCC2(CO)CCC2)n1 | > 100 µM (inactive) | > 100 µM (inactive) | > 100 µM (inactive) | > 100 µM (inactive) | > 100 µM (inactive) | > 100 µM (inactive) | > 100 µM (inactive) | > 100 µM (inactive) | > 100 µM | > 100 µM (inactive) | > 100 µM (inactive) | 75.2 µM (inactive) | > 100 µM (inactive) | > 100 µM (inactive) | > 100 µM (inactive) | > 100 µM (inactive) | > 100 µM (inactive) | > 100 µM (inactive) | > 100 µM (inactive) | > 100 µM (inactive)
4 | O=C1c2c(F)c(F)c(F)c(F)c2SC2=NCCN12 | 11.5 µM (inactive) | 1.61 µM (inactive) | 15.3 µM (inactive) | 1.15 µM (inactive) | 4 µM (inactive) | 16.3 µM (inactive) | 8.41 µM (inactive) | 8.69 µM (inactive) | 2.81 µM | 7.26 µM (inactive) | 8.87 µM (inactive) | 19.3 µM (inactive) | 12.6 µM (inactive) | 1.84 µM (inactive) | 9.38 µM (inactive) | 5.42 µM (inactive) | 2.15 µM (inactive) | 15.3 µM (inactive) | 14.8 µM (inactive) | 3.45 µM (inactive)
5 | Cc1c2cc[n+](CCN3CCCCC3)cc2c(C)c2c1[nH]c1ccc(O)cc12 | 2.04 µM (inactive) | 4.41 µM (inactive) | 3.02 µM (inactive) | 0.0723 µM (active) | 2.48 µM (inactive) | 3.45 µM (inactive) | 5.92 µM (inactive) | 15.1 µM (inactive) | 12.5 µM | 2.41 µM (inactive) | 0.8 µM (active) | 3.92 µM (inactive) | 1.64 µM (inactive) | 11.9 µM (inactive) | 6.1 µM (inactive) | 5.46 µM (inactive) | 2.58 µM (inactive) | 1.16 µM (inactive) | 2.54 µM (inactive) | 12.1 µM (inactive)
6 | N#C/C(=C\NC(=S)Nc1ccc(S(=O)(=O)Nc2ccccn2)cc1)C(N)=O | > 100 µM (inactive) | > 100 µM (inactive) | > 100 µM (inactive) | > 100 µM (inactive) | > 100 µM (inactive) | > 100 µM (inactive) | > 100 µM (inactive) | > 100 µM (inactive) | > 100 µM | > 100 µM (inactive) | > 100 µM (inactive) | > 100 µM (inactive) | > 100 µM (inactive) | > 100 µM (inactive) | > 100 µM (inactive) | 80.2 µM (inactive) | > 100 µM (inactive) | > 100 µM (inactive) | > 100 µM (inactive) | > 100 µM (inactive)
7 | N#Cc1c(N)nc(Sc2ccccc2N)c(C#N)c1-c1ccc(Cl)cc1 | 9.12 µM (inactive) | 4.45 µM (inactive) | 12 µM (inactive) | 1 µM (active) | 2.61 µM (inactive) | 11.8 µM (inactive) | 10.7 µM (inactive) | 13.7 µM (inactive) | 7.4 µM | 6.98 µM (inactive) | 7.59 µM (inactive) | 4.29 µM (inactive) | 12.6 µM (inactive) | 5.14 µM (inactive) | 33.6 µM (inactive) | 21.4 µM (inactive) | 6.81 µM (inactive) | 14.3 µM (inactive) | 12.6 µM (inactive) | 9.91 µM (inactive)
8 | S=CN1CCCCC1 | > 100 µM (inactive) | > 100 µM (inactive) | > 100 µM (inactive) | > 100 µM (inactive) | > 100 µM (inactive) | > 100 µM (inactive) | > 100 µM (inactive) | > 100 µM (inactive) | > 100 µM | > 100 µM (inactive) | > 100 µM (inactive) | > 100 µM (inactive) | > 100 µM (inactive) | > 100 µM (inactive) | > 100 µM (inactive) | > 100 µM (inactive) | > 100 µM (inactive) | > 100 µM (inactive) | > 100 µM (inactive) | > 100 µM (inactive)
9 | CCOC(=O)c1sc(=S)n(-c2ccc(Cl)cc2)c1-n1cc(-c2ccccc2)c(C#N)c1N | 12.1 µM (inactive) | 43.5 µM (inactive) | 16.9 µM (inactive) | 17.4 µM (inactive) | 26.5 µM (inactive) | 19.8 µM (inactive) | 16.7 µM (inactive) | 11.3 µM (inactive) | 42.8 µM | 11 µM (inactive) | 15.2 µM (inactive) | 22.5 µM (inactive) | > 100 µM (inactive) | 20.4 µM (inactive) | 38.2 µM (inactive) | 21.8 µM (inactive) | 26.1 µM (inactive) | 19 µM (inactive) | 16.3 µM (inactive) | 50.8 µM (inactive)
10 | CC(C)=NOC(=O)CNC(=O)C(Cc1ccccc1)NC(=O)C(C)NC(=O)OC(C)(C)C (stereo not given) | > 100 µM (inactive) | > 100 µM (inactive) | > 100 µM (inactive) | > 100 µM (inactive) | > 100 µM (inactive) | > 100 µM (inactive) | > 100 µM (inactive) | > 100 µM (inactive) | > 100 µM | > 100 µM (inactive) | > 100 µM (inactive) | > 100 µM (inactive) | > 100 µM (inactive) | > 100 µM (inactive) | > 100 µM (inactive) | > 100 µM (inactive) | > 100 µM (inactive) | > 100 µM (inactive) | > 100 µM (inactive) | > 100 µM (inactive)
11 | CNc1nc2c(C)ccc3nc(N(C)C)[nH]c3c-2n1 | 34.5 µM (inactive) | 31.7 µM (inactive) | 21.1 µM (inactive) | 43.8 µM (inactive) | 20.7 µM (inactive) | 24.8 µM (inactive) | 15.2 µM (inactive) | > 100 µM (inactive) | 23.9 µM | 51.3 µM (inactive) | 58.3 µM (inactive) | 30.1 µM (inactive) | 39.4 µM (inactive) | 93.1 µM (inactive) | 52 µM (inactive) | 32.9 µM (inactive) | 38.9 µM (inactive) | 15.3 µM (inactive) | 20.7 µM (inactive) | 33.8 µM (inactive)
12 | Nc1nc(N)c(N=O)c(OCC2CCCCC2)n1 | 15 µM (inactive) | 5.53 µM (inactive) | 19 µM (inactive) | 4.76 µM (inactive) | 6.52 µM (inactive) | 8.91 µM (inactive) | 1.06 µM (active) | 6.64 µM (inactive) | 5.5 µM | 11.6 µM (inactive) | 15.7 µM (inactive) | 20.5 µM (inactive) | 18.7 µM (inactive) | 11 µM (inactive) | 15.7 µM (inactive) | 12.2 µM (inactive) | 9.12 µM (inactive) | 26.8 µM (inactive) | 9.73 µM (inactive) | 11 µM (inactive)
13 | COc1cc2oc3ccccc3c(=O)c2cc1CSc1ccccc1N | 33.5 µM (inactive) | 29.7 µM (inactive) | 28 µM (inactive) | 5.2 µM (inactive) | 9.46 µM (inactive) | 45.3 µM (inactive) | 19.5 µM (inactive) | 35.5 µM (inactive) | 6.95 µM | 35.9 µM (inactive) | 22.9 µM (inactive) | 24.1 µM (inactive) | 4.62 µM (inactive) | 6.95 µM (inactive) | 18.7 µM (inactive) | 29.9 µM (inactive) | 19.5 µM (inactive) | 56.5 µM (inactive) | 13.5 µM (inactive) | 3.27 µM (inactive)
14 | O=c1[nH]c(=O)n(C2CC(O)C(CO)O2)c2nc3cc4ccccc4cc3nc12 (stereo not given) | 54.3 µM (inactive) | > 100 µM (inactive) | > 100 µM (inactive) | 91.6 µM (inactive) | > 100 µM (inactive) | > 100 µM (inactive) | > 100 µM (inactive) | > 100 µM (inactive) | > 100 µM | > 100 µM (inactive) | 59.2 µM (inactive) | > 100 µM (inactive) | > 100 µM (inactive) | > 100 µM (inactive) | > 100 µM (inactive) | > 100 µM (inactive) | > 100 µM (inactive) | 14.5 µM (inactive) | > 100 µM (inactive) | > 100 µM (inactive)
